Assay results as given in PubChem BioAssay AID1850 (Southern Research Specialized Biocontainment Screening …, 2009).

Test system: Salmonella Typhi PhoP-promoter GFP reporter, fluorescence, 4 h
Experiment: Inhibition of PhoP regulon, Salmonella typhi GFP reporter cells, confirmation, 4 h (AID 1850)

SMILES	IC50 [µM]
CCCCOc1ccc(NC2=NC3(CCCCC3)N=C(N)N2)cc1	6.52
N=c1c2c(n(Cc3ccc(Cl)cc3Cl)c3c1CCC3)CCCC2	42.3
Cc1cc(C2N=C(N)Nc3nc4ccccc4n32)c(C)n1-c1ccccc1Cl (stereo not drawn)	32
O=C(Cn1cncn1)N/N=C/c1ccccc1O	139
CCOC(=O)Cn1c(=N)n(CCOc2ccc3ccccc3c2)c2ccccc21	53.1
CN1CCN(/N=C/c2c3ccccc3c(Cl)c3ccccc23)CC1	74.6
O=C(N/N=C/c1cc(Cl)ccc1O)c1cccnc1	37.6
COc1c2ccccc2nc2ccccc12	25.6
Oc1ccc(CN2CCCc3ccccc32)c2cccnc12	83
CN1C(=O)NC(c2ccc(O)cc2)C(C(=O)c2cccs2)C1(O)C(F)(F)F (stereo not drawn)	38.1
CCN(CC(=O)NC(C)(C)C)C(=O)COc1c(Cl)cc(Cl)c2ccc(C)nc12	41.4
O=C1c2cccc3cccc(c23)C(=O)C1(O)O	48.4
CC[C@H]1OC(=O)C[C@@H](O)[C@H](C)[C@@H](O[C@@H]2O[C@H](C)C[C@H](N(C)C)[C@H]2O)[C@@H](CC=O)C[C@@H](C)C(=O)C=C[C@]2(C)O[C@H]2[C@@H]1C	7.16
O=C(Cn1nc(CNc2ccc(Cl)cc2)[n+]2c1CCCCC2)c1ccc(Br)cc1	51.4
CCn1cc(C(=O)O)c(=O)c2cc(F)c(N3CCN(C(=S)Nc4ccccc4OC)CC3)cc21	11.1
CCN1c2ccccc2NC2N=C(OC)C(c3ccccc3)C21 (stereo not drawn)	78.9
OC(CNCc1ccco1)Cn1c2ccc(Br)cc2c2cc(Br)ccc21 (stereo not drawn)	20.8
O=c1cc(-c2ccccc2)cc(-c2ccccc2)n1O	19.2
O=C(Cn1cc[n+](CC(=O)c2ccc(Cl)cc2Cl)c1)c1ccc(Cl)cc1Cl	37.5
CCOC(=O)N1CCN(CCC(=O)c2ccc(Cl)cc2)CC1	77.2

SMILES	IC50 [µM]
Cc1ccc(NC(=O)COc2ccccc2CNC(C)(C)CC(C)(C)C)cc1	91.6
Cc1ccc2nc(NCc3ccccc3)[nH]c2c1	62.3
Fc1ccc(Nc2nnc(C(F)(F)F)s2)cc1Cl	36.8
CCCCNC1=CC(=O)C(=O)c2ccccc21	13.8
CCc1ccc(NC(=O)Nc2ccncc2)cc1	71.3
CCOC(=O)N1CCC(=NNc2ccnc3cc(Cl)ccc23)CC1	35.3
COc1ccc(Nc2cc(C)nc(NCc3ccccc3)n2)cc1	74.1
CN1CCN(C2=Cc3ccccc3Sc3cc(F)ccc32)CC1	66.6
Clc1ccc(OCCCN2CCCC2)cc1Cl	93.3
C#CCOCCOCCOCCNc1nc(N2CCN(C(=O)CCCCCCCCCCNC(=O)[C@H]([C@@H](C)CC)n3cc(CCCCN=C(N)N)nn3)CC2)nc(N2CCN(C(=O)CCCCCCCCCCNC(=O)[C@H](CO)n3cc(CCCCCN)nn3)CC2)n1	34.7
Oc1[nH]c2ccc(Br)cc2c1N=NC(=S)N1CCOCC1	36.6
Cc1cc(C(C)(C)CC(C)(C)C)ccc1OCCOCC[N+](C)(C)Cc1ccccc1	18.2
Oc1c(Cl)cc(CN2CCCCC2)c2cccnc12	20
CCn1cc(C(=O)O)c(=O)c2cc3c(cc21)OCO3	43.3
O=C(N/N=C/c1cc(Cl)ccc1O)c1ccncc1	19.7
O=S(=O)(Nc1c(S(=O)(=O)c2ccccc2)c2nc3ccccc3nc2n1C1CCCCC1)c1ccccc1	5.01
C[C@H]1COc2c(N3CCN(C)CC3)c(F)cc3c(=O)c(C(=O)O)cn1c23	< 0.23
CC1(C)CC(=O)c2c(nc3ccccc3c2N)C1	71.6
CCCCCCCCCn1c2c(c(=N)c3c1CCC3)CCC2	17.4
CC[C@H]1OC(=O)[C@H](C)[C@@H](O[C@H]2C[C@@](C)(OC)[C@@H](O)[C@H](C)O2)[C@H](C)[C@@H](O[C@@H]2O[C@H](C)C[C@H](N(C)C)[C@H]2O)[C@](C)(O)C[C@@H](C)CN(C)[C@H](C)[C@@H](O)[C@]1(C)O	1.21

SMILES	IC50 [µM]
Fc1ccc(Nc2c3c(nc4ccccc24)CCC3)cc1	35.1
Cc1ccc(C)c(NC(=O)c2ccccc2O)c1	75.6
O=Nc1ccc(O)c2ncccc12	17.8
O=C1C=C(Nc2ccccc2O)c2ccccc2C1=O	54.5
CCC(/C=C1\Sc2ccc(OC)cc2N1CCO)=C\c1sc2ccc(OC)cc2[n+]1CCO	31.8
O=C(NC(=S)NNC(=O)c1cccs1)c1ccco1	39.1
CC(NCC(O)COCCC12CC3CC(CC(C3)C1)C2)c1ccccc1 (stereo not drawn)	31.4
CCCCC(=O)NC(=S)NNC(=O)CC	70.2
C(=N\Nc1ccccn1)/c1cccnc1	33.9
c1ccc(Nc2nc(NCC3CCCO3)c3ccccc3n2)cc1 (stereo not drawn)	5
CCn1cc(C(=O)O)c(=O)c2cc(F)c(N3CCN(C(=O)Nc4ccccc4)CC3)cc21	23.3
CCCCCCCCCCOC(=O)Cn1c(COc2ccc(Cl)cc2)[n+](C)c2ccccc21	10.3
CC[C@H]1OC(=O)[C@H](C)[C@@H](O[C@H]2C[C@@](C)(OC)[C@@H](O)[C@H](C)O2)[C@H](C)[C@@H](O[C@@H]2O[C@H](C)C[C@H](N(C)C)[C@H]2O)[C@](C)(O)C[C@@H](C)[C@@H]2N[C@@H](COCCOC)O[C@H]([C@H]2C)[C@]1(C)O	8.02
CCCCN(CCCC)C(=O)c1cn(CC)c2cc(N3CCN(C)CC3)c(F)cc2c1=O	4.23
Cc1cc(N/N=C/c2ccc(O)cc2)c2cccc(C)c2n1	39.9
CCCCCCC[N+](CC)(CC)CCCCc1ccc(Cl)cc1	54.7
CCCCCCCCCCCCCCCC[N+](C)(C)C	24.2
C/C(=N\NC(=O)c1ccc(Cl)cc1)c1ccccn1	33.4
